Test results: US8748569B2, “Peptide amphiphiles and methods to electrostatically control bioactivity of the ikvav peptide epitope” (Northwestern University, priority 2011, dated 2014)
Values belong to the compound of their own block, whether it stands above or below them. Peptide text beside a SMILES is read from it. * marks the point of attachment. Palmitoyl = CCCCCCCCCCCCCCCC(=O)*

Legend:
Circular dichroism (CD) = type: physicochemical; details: 1 wt % in 150 mM NaCl, 3 mM KCl
Experimental: CD was done using a model J-715 Jasco Circular Dichroism Spectrometer. 1 wt % PA solutions were prepared in either a 150 mM NaCl, 3 mM KCl solution or a 150 mM NaCl, 3 mM KCl, and 5 mM CaCl2 solution, both at a pH of 7.2-7.4, as determined via pH paper. The solutions were then heated to 80° C. in a water bath for 1 hr, and then slowly cooled to room temperature over the course of 8 hr. The samples were measured through 0.01 mm quartz plates. Each trace represents the average of three scans. The mean residue ellipticity was corrected for purity of the lyophilized powder from peptide content analysis.

[1] = tested on: P19 embryonal carcinoma cells differentiated into neurons; experiment: Neurite outgrowth of neurons cultured in peptide amphiphile gels; type: cell-based, murine; details: compared to gels of PA 1; for promotion of neurite outgrowth (in words): gels containing 0.2 wt % of the PA with 0.8 wt % PA 1
Experimental: P19 embryonal carcinoma cells were cultured in media composed of α-MEM (Gibco), 7.5% newborn calf serum (Lonza), 2.5% fetal bovine serum (Gibco), penicillin (100 units/ml) and streptomycin (100 ug/ml) (Invitrogen). Neuronal differentiation was induced by plating P19 cells in non-treated Petri dishes in media containing 5 uM retinoic acid (Sigma) for 4 days. Neurospheres were collected from the Petri dish and allowed to settle in a centrifuge tube for 10 minutes. Media was removed, then trypsin/EDTA solution was added and the tube was gently agitated for 5 minutes. Cells were dissociated by triturating the neurospheres, then media was added to inactivate the trypsin. Cells were centrifuged and the pellet resuspended in media to a concentration of 25,000 cells/ul. Cells were mixed (1:4) with PA solution. The PA/cell solution was pipetted into coverslip-bottom culture dishes (MatTek) and covered with gelling solution (150 mM NaCl, 3 mM KCl, 25 mM CaCl2) for 1 minute to induce gelation, then rinsed with a 150 mM NaCl, 3 mM KCl solution, then media was added to the dish. Cells were cultured for 2 days.
In order to assay neurite outgrowth, gels were rinsed with PBS, then fixed in 4% paraformaldehyde for 30 minutes at room temperature. Gels were rinsed 3× with PBS followed by addition of 10% normal goat serum blocking solution (Invitrogen) with 0.1% Triton X-100 added. Gels were incubated overnight with primary antibody (rabbit anti-β-III-tubulin IgG, 1/2000, Covance) in blocking solution. Gels were rinsed 3× with PBS, then blocked for 30 minutes with blocking solution. Next, gels were incubated with secondary antibody (Alexa Fluor 488 goat anti-rabbit IgG, 1/100, Invitrogen) in blocking solution for 1 hour. After one PBS rinse, nuclei were stained with a 5 ug/ml solution of Hoecsht 34580 (Invitrogen) in PBS for 15 minutes, then rinsed 4 times. Gels were imaged on a Zeiss LSM 510 META laser scanning confocal microscope, individually acquiring z-stacks of randomly chosen cells with neurites. Two gels were imaged per condition for each experiment. Experiments were done in triplicate. For each condition, at least 50 neurons with neurites were imaged. Using the Simple Neurite Tracer plug-in for ImageJ software, neurites were traced and measured. A one-way ANOVA, followed by paired t-tests, were performed to determine significance between conditions. Researchers were blinded to the conditions during imaging and tracing.
Pluripotent murine P19 embryonal carcinoma cells were differentiated into neurons. These neurons were then homogeneously distributed into isotonic salt solutions composed of 0.8 wt % PA 1 mixed with 0.2 wt % 2-5 and gelled with 25 mM CaCl2 (FIG. 3a,b). Mixtures of 1 with 2-5 were used in biological experiments in order to form robust gel matrices capable of supporting cells in culture. After two days of culture, the cells were fixed and the neurites and nuclei were fluorescently labelled green and blue using β-III-tubulin immunostaining and Hoechst staining, respectively, then imaged by confocal microscopy (FIG. 14). Neurites were traced and measured, and average neurite lengths were calculated (FIG. 15).

[2] = Solubility in physiologically relevant monovalent salt solution; type: physicochemical; details: monovalent salt solution composed of 150 mM NaCl and 3 mM KCl
[3] = Transmission electron microscopy (cryoTEM / conventional TEM) of PA nanostructures; type: physicochemical; details: for fiber diameter in trimer ribbons: cryoTEM / TEM, fibers aggregated side-by-side; for OBSERVED FIBER DIAMETER: from TEM; for ASSEMBLED MORPHOLOGY: observed morphologies from TEM; for average diameter of cylindrical fibers: cryoTEM, 150 mM NaCl, 3 mM KCl, pH 7.4
Experimental: The nanostructure of each PA molecule under physiologically relevant conditions was investigated using electron microscopy. Samples for vitreous ice cryo-transmission electron microscopy (cryoTEM) were prepared from a 0.1-0.5 wt % PA solution dissolved in 150 mM NaCl, 3 mM KCl, or in a 150 mM NaCl, 3 mM KCl, and 5 mM CaCl2 solution, both at a pH of 7.2-7.4. The solutions were then heated to 80° C. in a water bath for 1 hr, and then slowly cooled to room temperature over the course of 8 hr. 10 μL of each solution was pipetted onto a plasma cleaned holey carbon TEM grid (Electron Microscopy Sciences), blotted and plunged into liquid ethane using a FEI Vitrobot Mark IV. Samples were kept at −180° C. and imaged using a JEOL 1230 TEM operating at 100 kV.
Samples for conventional TEM microscopy were prepared from 0.1 wt % PA solution dissolved in ultrapure water and adjusted to a pH of 7.2-7.4 by adding NaOH. The solutions were then heated to 80° C. in a water bath for 1 hr, and then slowly cooled to room temperature over the course of 8 hr, unless noted otherwise. 2 μL of a 0.1 wt % PA solution was pipetted onto a Carbon Formvar grid (Electron Microscopy Sciences) and allowed to dry. The samples were then negatively stained by pipetting 2 uL of a 2 wt % Uranyl acetate solution and allowed to dry. Each sample was imaged using a JEOL 1230 TEM operating at 100 kV. The average diameter of nanofibers was obtained via measuring 40-100 different fibers from solutions and grids prepared throughout multiple days.
The assembly of each PA molecule under physiologically relevant conditions was examined using cryogenic electron microscopy (cryoTEM), as described in Example 4. PAs were dissolved in isotonic salt solutions resembling extracellular fluid (150 mM NaCl, 3 mM KCl, pH 7.4). […] In order to compare molecular simulation diameters with those observed from TEM, molecular simulation values for the other four PA molecules were scaled by the same amount, 87%.

[4] = Small-angle X-ray scattering (SAXS) of PA nanostructures; type: physicochemical; details: (Core) Shell Cylinder SAXS model; for Total SAXS Cross-section dimensions: diameter
From the text: Small-angle X-ray scattering (SAXS) measurements were obtained using a Rigaku S-MAX 3000 High Brilliance SAXS System. Cu Ka radiation was generated by Osmic MicroMaxs, an integrated microfocus sealed tube generator (powered at 45 kV and 0.9 mA) with Osmict Confocal Max-Fluxs optics, 3 pinholes collimation. A 20×20 cm^2 2D position-sensitive wire detector (1024×1024 pixels) was positioned 150 cm behind the examined samples, resulting in a q-range of 0.07-2.8 nm^−1. The wave vector defined as, q=(4π/λ)sin(2θ/2), where 2y is the scattering angle and λ is wavelength of Cu Kα radiation (1.542 Å). A total of 10^6 or more counts were collected in order to obtain a high signal to noise ratio. Samples were measured for 3600 s, and then background subtracted from data collected using a capillary containing the isotonic salt solution. The 2D SAXS patterns were azimuthally averaged and the background subtracted using standard methods. Data analysis was based on fitting the scattering curve to an appropriate model by a least-squares method using software provided by NIST (NIST SANS analysis version 7.0 on IGOR) ^21 The table below lists the models used to fit the SAXS curves. The Total SAXS cross-sectional dimensions correspond to length and width for molecule 2, and diameter for 3-5.

peptide secondary structure from CD spectrum (Circular dichroism (CD)): beta-sheet like CD signatures
solubility [2]: soluble
fiber diameter in trimer ribbons [3]: 7.1±1 nm
diameter of cylindrical assemblies ([3]; cryoTEM and conventional TEM): 12.8±1.3 nm
OBSERVED FIBER DIAMETER ([3]; Cylindrical morphology): 128 ± 14 Å
OBSERVED FIBER DIAMETER ([3]; Trimer ribbon morphology): 71 ± 5 Å
ASSEMBLED MORPHOLOGY ([3]; Cylindrical morphology): Cylindrical
ASSEMBLED MORPHOLOGY ([3]; Trimer ribbon morphology): Trimer ribbon
Core Diameter [4]: 1.2 nm
Shell Thickness [4]: 3.8 ± 0.6 nm
Total SAXS Cross-section dimensions [4]: 7.6 ± 1.2 nm
Compound: CCCCCCCCCCCCCCCC(=O)N[C@H](C(=O)N[C@H](C(=O)N[C@@H](C)C(=O)N[C@@H](C)C(=O)N[C@@H](CCC(=O)O)C(=O)N[C@@H](CCC(=O)O)C(=O)N[C@@H](CCC(=O)O)C(=O)NCC(=O)N[C@H](C(=O)N[C@@H](CCCCN)C(=O)N[C@H](C(=O)N[C@@H](C)C(=O)N[C@H](C(=O)O)C(C)C)C(C)C)[C@@H](C)CC)C(C)C)C(C)C [PA 3, CH3(CH2)14C(O)-VVAAEEEGIKVAV-OH] (Palmitoyl-VVAAEEEGIKVAV-OH)
promotion of neurite outgrowth (in words) [1]: promoted neurite outgrowth
promotion of neurite outgrowth (in words) ([1]; listed as SEQ ID NO. 5): promote neurite outgrowth
increase in neurite outgrowth ([1]; gels of 0.8 wt % PA 1 mixed with 0.2 wt % of the PA, gelled with 25 mM CaCl2, 2 days culture): 42±13%

Compound: CH3(CH2)14C(O)-VVAAEEGIKVAV-OH (Palmitoyl-VVAAEEGIKVAV-OH; SMILES CCCCCCCCCCCCCCCC(=O)N[C@H](C(=O)N[C@H](C(=O)N[C@@H](C)C(=O)N[C@@H](C)C(=O)N[C@@H](CCC(=O)O)C(=O)N[C@@H](CCC(=O)O)C(=O)NCC(=O)N[C@H](C(=O)N[C@@H](CCCCN)C(=O)N[C@H](C(=O)N[C@@H](C)C(=O)N[C@H](C(=O)O)C(C)C)C(C)C)[C@@H](C)CC)C(C)C)C(C)C) [PA 2]
peptide secondary structure from CD spectrum (Circular dichroism (CD)): beta-sheet like CD signatures
promotion of neurite outgrowth (in words) [1]: no enhancement of neurite outgrowth
promotion of neurite outgrowth (in words) ([1]; listed as 2): did not
fiber diameter in trimer ribbons [3]: 6.0±0.5 nm
OBSERVED FIBER DIAMETER [3]: 60 ± 5 Å
ASSEMBLED MORPHOLOGY [3]: Trimer ribbon

Compound: CH3(CH2)14C(O)-VVAAEEEGGIKVAV-OH (Palmitoyl-VVAAEEEGGIKVAV-OH; SMILES CCCCCCCCCCCCCCCC(=O)N[C@H](C(=O)N[C@H](C(=O)N[C@@H](C)C(=O)N[C@@H](C)C(=O)N[C@@H](CCC(=O)O)C(=O)N[C@@H](CCC(=O)O)C(=O)N[C@@H](CCC(=O)O)C(=O)NCC(=O)NCC(=O)N[C@H](C(=O)N[C@@H](CCCCN)C(=O)N[C@H](C(=O)N[C@@H](C)C(=O)N[C@H](C(=O)O)C(C)C)C(C)C)[C@@H](C)CC)C(C)C)C(C)C) [PA 4]
promotion of neurite outgrowth (in words) [1]: did not show any biological activity with respect to neurite outgrowth
promotion of neurite outgrowth (in words) ([1]; listed as 4): did not
fiber diameter in bundled dimers ([3]; cryoTEM and conventional TEM): 8.1±1.0 nm
fiber diameter in triple helices ([3]; cryoTEM and conventional TEM): 7.7±0.9 nm
OBSERVED FIBER DIAMETER ([3]; Dimer Bundle morphology): 77 ± 9 Å
OBSERVED FIBER DIAMETER ([3]; Triple helix morphology): 81 ± 10 Å
ASSEMBLED MORPHOLOGY ([3]; Dimer Bundle morphology): Dimer Bundle
ASSEMBLED MORPHOLOGY ([3]; Triple helix morphology): Triple helix
Core Diameter [4]: .93 nm
Shell Thickness [4]: 2.63 ± 1.1 nm
Total SAXS Cross-section dimensions [4]: 7.1 ± 2.2 nm

Compound: CH3(CH2)14C(O)-VVAAEE-NH2 (Palmitoyl-VVAAEE-NH2) [PA 1]
average diameter of cylindrical fibers [3]: 6.7±0.9 nm
average diameter of cylindrical fibers ([3]; listed as PA compound 1): 6.7 nm
OBSERVED FIBER DIAMETER [3]: 66 ± 9 Å
ASSEMBLED MORPHOLOGY [3]: Cylindrical fiber
